# Data as given in patent publication US20210161913A1, “OXYGENATED CHOLESTEROL SULFATES FOR THERAPY OF DISORDERS CAUSED BY AT LEAST ONE OF ATTENUATED LEPTIN ACTIVITY AND A LIPID STORAGE DISORDER” (Virginia Commonwealth University, priority 2015, published 2021).
# Key:
# [1] = system: leptin-deficient (obese fa/fa) Zucker rats; experiment: Serum lipid levels in leptin-deficient (obese fa/fa) Zucker rats after 25HC3S administration; assay type: in vivo, rat
# Text: To examine the effect of 25HC3S on lipid accumulation in sera and in the liver in a leptin-deficient (obese fa/fa) animal model (Zucker rats), 11 week old Zucker rats (Charles River, Wilmington, Mass.) were randomly assigned into four groups. Obese fa/fa Zucker rats have a defective leptin receptor and serve as a general animal model for deficiencies in leptin activity, whether due to low leptin levels, congenital defects in the leptin receptor or acquired leptin resistance, since all result in inadequate or faulty leptin activity. Further, these animals develop unwanted lipid accumulation after several weeks of life due to a genetic mutation in the leptin receptor. All rats were housed under identical conditions with a 12-hour light/12-hour dark cycle and given free access to water and food. The rats (n=5 in each treatment) were gavaged orally with vehicle (10% cellulose) or 25HC3S (10 mg/kg, 30 mg/kg, and 100 mg/kg) once a day for 21 days and fasted overnight (14 hrs) before collection of samples. To compare with gavage administration, other rats (n=10-17 in each treatment) were intraperitoneally injected with vehicle solution (ethanol/PBS; vehicle) or 25HC3S (50 mg/kg) once every three days for 6 weeks and fasted overnight (14 hrs). Blood samples were collected before sacrifice. Serum triglyceride (TG), total cholesterol (CHOL), high density lipoprotein-cholesterol (HDL-C), alkaline phosphatase (ALK), alanine aminotransferase (ALT), and aspartate aminotransferase (AST) were measured using standard enzymatic techniques. Lipoprotein profiles in sera were analyzed by HPLC in the following descriptions. The lipoproteins, triglycerides and cholesterol in very low density lipoprotein (VLDL), low-density lipoprotein (LDL) and high-density lipoprotein (HDL) were measured by gel filtration using HPLC as previously described (Bai et al., 2012). Briefly, rat serum (100 μl) was eluted with a solvent of 154 mM NaCl with 0.1 mM EDTA (pH 8.0) at a flow rate of 0.2 ml/min via a Pharmacia Superose 6 HR 10/30 FPLC column, and the signal was read at a wavelength of 280 nm. Fractions were collected for 1.2 min each from 20 min up to 100 min. 180 μl of each fraction plus 20 μl of a 10× solution of Wako Total Cholesterol E Reagent (Wako Chemicals USA, Richmond, Va.) was incubated in a 96-well plate at 37° C. for 3 hrs in the dark to analyze cholesterol levels, and the absorbance was read at a wavelength of 595 nm. 2 μl of each fraction plus 200 μl of Infinity™ Triglycerides Reagent (Fisher Scientific, Pittsburgh, Pa.) was incubated in a 96-well plate at 37° C. for 5 minutes in dark to analyze triglyceride levels, and the absorbance was read at a wavelength of 500 nm. The lipoprotein profile was monitored as an internal control.
# [2] = system: leptin-deficient (obese fa/fa) Zucker rats; experiment: Quantification of hepatic lipids in Zucker rats; assay type: in vivo, rat; conditions: 21 days
# Text: (§1) To examine the effect of 25HC3S on lipid accumulation in sera and in the liver in a leptin-deficient (obese fa/fa) animal model (Zucker rats), 11 week old Zucker rats (Charles River, Wilmington, Mass.) were randomly assigned into four groups. Obese fa/fa Zucker rats have a defective leptin receptor and serve as a general animal model for deficiencies in leptin activity, whether due to low leptin levels, congenital defects in the leptin receptor or acquired leptin resistance, since all result in inadequate or faulty leptin activity. Further, these animals develop unwanted lipid accumulation after several weeks of life due to a genetic mutation in the leptin receptor. All rats were housed under identical conditions with a 12-hour light/12-hour dark cycle and given free access to water and food. The rats (n=5 in each treatment) were gavaged orally with vehicle (10% cellulose) or 25HC3S (10 mg/kg, 30 mg/kg, and 100 mg/kg) once a day for 21 days and fasted overnight (14 hrs) before collection of samples. To compare with gavage administration, other rats (n=10-17 in each treatment) were intraperitoneally injected with vehicle solution (ethanol/PBS; vehicle) or 25HC3S (50 mg/kg) once every three days for 6 weeks and fasted overnight (14 hrs). Blood samples were collected before sacrifice. Serum triglyceride (TG), total cholesterol (CHOL), high density lipoprotein-cholesterol (HDL-C), alkaline phosphatase (ALK), alanine aminotransferase (ALT), and aspartate aminotransferase (AST) were measured using standard enzymatic techniques. Lipoprotein profiles in sera were analyzed by HPLC in the following descriptions.
# Liver tissues were homogenized, and the hepatic total lipids were extracted using a mixture of chloroform and methanol (2:1, v:v). After the extracts were filtered, 0.2 ml of each was evaporated to dryness and dissolved in 100 μl of isopropanol containing 10% Triton™ X-100 for cholesterol assay (Wako Chemicals USA, Richmond, Va.), 100 μl of NEFA solution (0.5 g of EDTA-Naz, 2 g of Triton™ X-100, 0.76 ml of 1N NaOH, and 0.5 g of sodium azide/1, pH 6.5) for the free fatty acid assay (Wako Chemicals USA, Richmond, Va.), or 100 μl of isopropanol only for the triglyceride assay (Fisher Scientific, Pittsburgh, Pa.). Each lipid concentration was normalized by liver weight.
# [3] = system: leptin-deficient (obese fa/fa) Zucker rats; experiment: Liver histo-morphology (HE and Oil Red O staining), hepatic lipidosis in Zucker rats; assay type: in vivo, rat; parameters: key to Force Rank (Oil Red O): 1 = least severe; 5 = most severe; conditions: for Force Rank (Oil Red O) / Severity of Hepatic Lipidosis: N = 5 males
# Text: as §1, with “descriptions. Three specimens from different regions of the liver of each rat were collected and fixed in 4% paraformaldehyde in 0.1 M phosphate buffer at room temperature overnight. The regions of the specimens were standardized for all rats. The paraffin-embedded tissue sections (4 μm) were stained with hematoxylin and eosin (HE). 3-3′-Diaminobenzidine (DAB) was used as the chromogen, and hematoxylin was used as the nuclear counterstain. Determination of total intracellular lipids: Oil Red O staining of intracellular neutral lipids: the liver slides were fixed with 3.7% formaldehyde in PBS for 30 min followed by two washes with phosphate-buffered saline (PBS). The cells were stained with 0.2% Oil Red O in 60% 2-propanol for 10 min and washed three times with PBS. The images were taken with the use of a microscope (Olympus, Tokyo, Japan) equipped with image recorder under 40× lenses. All slides of tissue were qualitatively examined by light microscopy by a board certified veterinary pathologist. The incidence and severity of the lesions were scored. Lesions were also assessed for duration and distribution.” for “descriptions.”
# primary hepatocytes = conditions: Ma et al., 2008, Ren et al., 2007, Xu et al., 2010; cited from earlier work
# THP-1 macrophages = conditions: Ma et al., 2008, Ren et al., 2007, Xu et al., 2010; cited from earlier work
# [4] = gavage administration once a day for 21 days, fasted overnight, vs vehicle
# [5] = intraperitoneal administration, 50 mg/kg once every three days
# [6] = gavage 10 mg/kg, normalized by liver weight
smiles,measurement,setting,value
"CC(CCCC(C)(C)O)C1CCC2C3CC=C4CC(OS(=O)(=O)O)CCC4(C)C3CCC12C (stereo not shown) [25HC3S, 5-cholesten, 3-, 25-diol, 3-sulfate]",decrease of plasma CHOL,[1]; [4],17%
same,decrease of plasma TG,[1]; [4],30%
same,change in HDL levels,"[1]; gavage administration, 21 days",no significant change
same,change in LDL levels,"[1]; gavage administration, 21 days",no significant change
same,serum HDL,[1]; [5],significantly decreased
same,serum total cholesterol,[1]; [5],significantly decreased
same,serum triglyceride,[1]; [5],significantly decreased
same,liver free cholesterol concentration,[2]; administration of 25HC3S,not affected
same,reduction of liver tissue free fatty acids,[2]; [6],26%
same,reduction of liver tissue total cholesterol,[2]; [6],25%
same,reduction of liver tissue triglyceride,[2]; [6],43%
same,Force Rank (Oil Red O),[3]; 10 mg/kg/day gavage,4
same,Severity of Hepatic Lipidosis,[3]; 10 mg/kg/day gavage,Mild to moderate
same,Force Rank (Oil Red O),[3]; 30 mg/kg/day gavage,3
same,Severity of Hepatic Lipidosis,[3]; 30 mg/kg/day gavage,Mild to moderate
same,Force Rank (Oil Red O),[3]; 50 mg/kg IP every 3 days,2
same,Severity of Hepatic Lipidosis,[3]; 50 mg/kg IP every 3 days,Mild
same,Force Rank (Oil Red O),[3]; 100 mg/kg/day gavage,1
same,Severity of Hepatic Lipidosis,[3]; 100 mg/kg/day gavage,Mild
same,lipid inclusions in hepatocytes (HE stained liver sections),"[3]; 10, 30 and 100 mg/kg PO (FIGS. 3B, C, D) vs control rats",significantly decreased
same,lipid accumulation,primary hepatocytes,reduce lipid accumulation
same,lipid accumulation,THP-1 macrophages,reduce lipid accumulation
